According to patent US20250049812A1, “Compounds that Inhibit Necroptosis and Their Preparation Methods” (SHANGHAI INSTITUTE OF ORGANIC CHEMISTRY, CHINESE ACADEMY OF …, priority 2021, published 2025):
Read-outs that look alike come from different tables or passages of the source.

System: Jurkat FADD (−/−) Cells
Test: TNF-α induced necroptosis of Jurkat FADD-deficient cells (CellTiter-Glo cell survival)
Assay type: cell-based, human
Summary of the method: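 Cells in RPMI 1640 with 10% FBS were pretreated for 1 h at 37 °C with compound (12-point threefold series from 25 μM, or 0.5 μM, in triplicate). They were then stimulated with TNFα added as a 5 ng/mL solution for 13 h. Survival was read by luminescence.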

[1] = Homo sapiens, TNF-α induced necroptosis, Jurkat FADD-deficient cells, 13 hours, CellTiter-Glo, read-out: IC50
[2] = TNF-α induced necroptosis, Jurkat FADD-deficient cells, 13 hours, CellTiter-Glo, read-out: IC50

SMILES	IC50 [1] [nM]	further results
CN1C(=O)C(NC(=O)c2nnc(Cc3ccccc3)[nH]2)Cc2cn(-c3ncccc3SC(F)(F)F)c3cccc1c23 (racemic) [T-111, (±)-5-benzyl-N-(1-methyl-2-oxo-6-(3-((trifluoromethyl)thio)pyridin-2-yl)-2,3,4,6-tetrahydro-1H-aza [4,3,2-cd]indol-3-yl)-4H-1,2,4-triazole-3-carboxamide]	< 10	
Cc1nn(C)c(C)c1-c1cn2c3c(cccc13)N(C)C(=O)C(NC(=O)c1nnc(Cc3ccccc3)[nH]1)C2 (racemic) [T-114, (±)-5-benzyl-N-(1-methyl-2-oxo-7-(1,3,5-trimethyl-1H-pyrazol-4-yl)-1,2,3,4-tetrahydro-[1,4]diazepine [3,2,1-hi]indol-3-yl)-4H-1,2,4-triazole-3-carboxamide]	< 10	
Cc1nn(C)c(C)c1-c1cn2c3c(cccc13)N(C)C(=O)C(NC(=O)c1nnc(Cc3ccccc3)[nH]1)C2 (racemic) [T-119, (±)-5-benzyl-N-(1-methyl-2-oxo-7-(1,3,5-trimethyl-1H-pyrazol-4-yl)-1,2,3,4-tetrahydro-[1,4]diazepine [3,2,1-hi]indol-3-yl)-4H-1,2,4-triazole-3-carboxamide]		IC50 [2]: < 10 nM
CN1C(=O)C(NC(=O)c2nnc(Cc3ccccc3)[nH]2)Cc2c[nH]c3ccnc1c23 (racemic) [T-129, (±)-5-benzyl-N-(6-methyl-7-oxo-6,7,8,9-tetrahydro-2H-2,5,6-triazabenzene[cd]azulene-8-yl)-4H-1,2,4-triazol-3-carboxamide]	100 to 1000	
CN1C(=O)C(NC(=O)c2nnc(Cc3ccccc3)[nH]2)Cc2c[nH]c3cncc1c23 (racemic) [T-130, (±)-5-benzyl-N-(6-methyl-7-oxo-6,7,8,9-tetrahydro-2H-2,3,6-triazabenzene[cd]azulene-8-yl)-4H-1,2,4-triazol-3-carboxamide]	> 1000	
CN1C(=O)C(NC(=O)c2nnc(Cc3ccccc3)[nH]2)Cc2c[nH]c3ccc(F)c1c23 (racemic) [T-131, (±)-5-benzyl-N-(9-fluoro-1-methyl-2-oxo-2,3,4,6-tetrahydroazepincd [4,3,2-cd]indol-3-yl)-4H-1,2,4-triazole-3-carboxamide]	< 10	
CN1C(=O)[C@@H](NC(=O)c2nnc(Cc3ccccc3)[nH]2)Cc2c[nH]c3nccc1c23 [T-71, (S)-5-benzyl-N-(6-methyl-7-oxo-6,7,8,9-tetrahydro-2H-2,3,6-triazabenzene[cd]azulene-8-yl)-4H-1,2,4-triazole-3-carboxamide]	10 to 100	
CN1C(=O)[C@@H](NC(=O)c2nnc(Cc3ccccc3)[nH]2)Cc2n[nH]c3cccc1c23 [T-72, (S)-5-benzyl-N-(6-methyl-7-oxo-6,7,8,9-tetrahydro-2H-azacyclo [4,3,2-cd]indazol-8-yl)-4H-1,2,4-triazole-3-carboxamide]	100 to 1000	
COc1ncccc1-c1cn2c3c(cccc13)N(C)C(=O)C(NC(=O)c1nnc(Cc3ccccc3)[nH]1)C2 (stereo not drawn) [T-78, 5-benzyl-N-(7-(2-methoxypyridin-3-yl)-1-methyl-2-oxo-1,2,3,4-tetrahydro-[1,4]diazepino[3,2,1-hi]indol-3-yl)-4H-1,2,4-triazole-3-carboxamide]	< 10	
Cc1cnn(C)c1-c1cn2c3c(cccc13)N(C)C(=O)C(NC(=O)c1nnc(Cc3ccccc3)[nH]1)C2 (stereo not drawn) [T-81, 5-benzyl-N-(7-(1,4-dimethyl-1H-pyrazol-5-yl)-1-methyl-2-oxo-1,2,3,4-tetrahydro-[1,4]diazepino[3,2,1-hi]indol-3-yl)-4H-1,2,4-triazole-3-carboxamide]	< 10	
CN1C(=O)C(NC(=O)c2nnc(Cc3ccccc3)[nH]2)Cn2cc(-c3ncccc3C(F)(F)F)c3cccc1c32 (stereo not drawn) [T-82, 5-benzyl-N-(1-methyl-2-oxo-7-(3-(trifluoromethyl)pyridin-2-yl)-1,2,3,4-tetrahydro-[1,4]diazepino[3,2,1-hi]indol-3-yl)-4H-1,2,4-triazole-3-carboxamide]	< 10	
Cc1noc(C)c1-c1cn2c3c(cccc13)N(C)C(=O)C(NC(=O)c1nnc(Cc3ccccc3)[nH]1)C2 (stereo not drawn) [T-86, 5-benzyl-N-(7-(3,5-dimethylisoxazol-4-yl)-1-methyl-2-oxo-1,2,3,4-tetrahydro-[1,4]diazepine[3,2,1-hi]indol-3-yl)-4H-1,2,4-triazole-3-carboxamide]	< 10	
COC(=O)C(=O)c1cn2c3c(cccc13)N(C)C(=O)[C@@H](NC(=O)c1nnc(Cc3ccccc3)[nH]1)C2 [T-92, Methyl(S)-2-(3-(5-benzyl-4H-1,2,4-triazole-3-carboxamide)-1-methyl-2-oxo-1,2,3,4-tetrahydro-[1,4]diazepine [3,2,1-hi]indol-7-yl)-2-oxoacetic Acid]		IC50 (Homo sapiens, Jurkat, 13 h): > 1000 nM
CN1C(=O)[C@@H](NC(=O)c2nnc(Cc3ccccc3)[nH]2)Cn2cc(C(=O)C(F)(F)F)c3cccc1c32 [T-93, (S)-5-benzyl-N-(1-methyl-2-oxo-7-(2,2,2-trifluoroacetyl)-1,2,3,4-tetrahydro-[1,4]diazepine [3,2,1-hi]indol-3-yl)-4H-1,2,4-triazole-3-carboxamide]		IC50 (Homo sapiens, Jurkat, 13 h): 100 to 1000 nM
CN1C(=O)[C@@H](NC(=O)c2nnc(Cc3ccccc3)[nH]2)Cn2cc(C(=O)O)c3cccc1c32 [T-94, (S)-3-(5-benzyl-4H-1,2,4-triazole-3-carboxamide)-1-methyl-2-oxo-1,2,3,4-tetrahydro-[1,4] diazabicyclo[3,2,1-hi] indole-7-carboxylic Acid]		IC50 (Homo sapiens, Jurkat, 13 h): > 1000 nM
COC(=O)c1cn2c3c(cccc13)N(C)C(=O)[C@@H](NC(=O)c1nnc(Cc3ccccc3)[nH]1)C2 [T-95, Methyl (S)-3-(5-benzyl-4H-1,2,4-triazole-3-carboxamide)-1-methyl-2-oxo-1,2,3,4-tetrahydro-[1,4] diazepine [3,2,1-hi] indole-7-carboxylate]		IC50 (Homo sapiens, Jurkat, 13 h): 100 to 1000 nM
CN1C(=O)[C@@H](NC(=O)c2nnc(Cc3ccccc3)[nH]2)Cn2ccc3c(-c4c[nH]nc4C(F)(F)F)ccc1c32 [T-113, (S)-5-benzyl-N-(1-methyl-2-oxo-7-(3-(trifluoromethyl)-1H-pyrazol-4-yl)-1,2,3,4-tetrahydro-[1,4]diazepine [3,2,1-hi]indol-3-yl)-4H-1,2,4-triazole-3-carboxamide]		IC50 [2]: < 10 nM
CN1C(=O)[C@@H](NC(=O)c2nnc(Cc3ccccc3)[nH]2)Cn2cc(-c3cnn(C(F)F)c3)c3cccc1c32 [T-115, (S)-5-benzyl-N-(7-(1-(difluoromethyl)-1H-pyrazol-4-yl)-1-methyl-2-oxo-1,2,3,4-tetrahydro-1,4-diazepine [3,2,1-hi]indol-3-yl)-4H-1,2,4-triazole-3-carboxamide]	10 to 100	
CN1C(=O)[C@@H](NC(=O)c2nnc(Cc3ccccc3)[nH]2)Cn2cc(-c3ccn[nH]3)c3cccc1c32 [T-116, (S)-5-benzyl-N-(1-methyl-2-oxo-7-(1H-pyrazol-5-yl)-1,2,3,4-tetrahydro-[1,4]diazepine [3,2,1-hi]indol-3-yl)-4H-1,2,4-triazole-3-carboxamide]	10 to 100	
Cc1nn(C)cc1-c1cn2c3c(cccc13)N(C)C(=O)[C@@H](NC(=O)c1nnc(Cc3ccccc3)[nH]1)C2 [T-117, (S)-5-benzyl-N-(7-(1,3-dimethyl-1H-pyrazol-4-yl)-1-methyl-2-oxo-1,2,3,4-tetrahydro-1,4-diazepine [3,2,1-hi]indol-3-yl)-4H-1,2,4-triazole-3-carboxamide]	< 10	
CN1C(=O)[C@@H](NC(=O)c2nnc(Cc3ccccc3)[nH]2)Cn2cc(-c3cnn(C4CCOCC4)c3)c3cccc1c32 [T-120, (S)-5-benzyl-N-(1-methyl-2-oxo-7-(1-(tetrahydro-2H-pyran-4-yl)-1H-pyrazol-4-yl)-1,2,3,4-tetrahydro-1,4-diazepine[3,2,1-hi]indol-3-yl)-4H-1,2,4-triazole-3-carboxamide]	< 10	
CN1C(=O)[C@@H](NC(=O)c2nnc(Cc3ccccc3)[nH]2)Cn2cc(-c3cnn(C4CC4)c3)c3cccc1c32 [T-121, (S)-5-benzyl-N-(7-(1-cyclopropyl-1H-pyrazol-4-yl)-1-methyl-2-oxo-1,2,3,4-tetrahydro-1,4-diazepino [3,2,1-hi]indol-3-yl)-4H-1,2,4-triazole-3-carboxamide]	10 to 100	
CN1C(=O)[C@@H](NC(=O)c2nnc(Cc3ccccc3)[nH]2)Cn2cc(-c3cn(C)nc3-c3ccccc3)c3cccc1c32 [T-122, (S)-5-benzyl-N-(1-methyl-7-(1-methyl-3-phenyl-1H-pyrazol-4-yl)-2-oxo-1,2,3,4-tetrahydro-[1,4]diazepine [3,2,1-hi]indol-3-yl)-4H-1,2,4-triazole-3-carboxamide]	10 to 100	
CN1C(=O)[C@@H](NC(=O)c2nnc(Cc3ccccc3)[nH]2)Cn2cc(-c3cncs3)c3cccc1c32 [T-123, (S)-5-benzyl-N-(1-methyl-2-oxo-7-(thiazol-5-yl)-1,2,3,4-tetrahydro-[1,4]diazepine [3,2,1-hi]indol-3-yl)-4H-1,2,4-triazole-3-carboxamide]	10 to 100	
CN1C(=O)[C@@H](NC(=O)c2nnc(Cc3ccccc3)[nH]2)Cn2cc(-c3cnn(CC(F)(F)F)c3)c3cccc1c32 [T-124, (S)-5-benzyl-N-(1-methyl-2-oxo-7-(1-(2,2,2-trifluoroethyl)-1H-pyrazol-4-yl)-1,2,3,4-tetrahydro-[1,4]diazepine [3,2,1-hi]indol-3-yl)-4H-1,2,4-triazole-3-carboxamide]	10 to 100	
Cc1c(-c2cn3c4c(cccc24)N(C)C(=O)[C@@H](NC(=O)c2nnc(Cc4ccccc4)[nH]2)C3)cnn1C [T-125, (S)-5-benzyl-N-(7-(1,5-dimethyl-1H-pyrazol-4-yl)-1-methyl-2-oxo-1,2,3,4-tetrahydro-1,4-diazepine [3,2,1-hi]indol-3-yl)-4H-1,2,4-triazole-3-carboxamide]	< 10	
CN1C(=O)[C@@H](NC(=O)c2nnc(Cc3ccccc3)[nH]2)Cn2cc(-c3cnc(Cl)n3C)c3cccc1c32 [T-126, (S)-5-benzyl-N-(7-(2-chloro-1-methyl-1H-imidazol-5-yl)-1-methyl-2-oxo-1,2,3,4-tetrahydro-1,4-diazepine [3,2,1-hi]indol-3-yl)-4H-1,2,4-triazole-3-carboxamide]	10 to 100	
